Reference: patent US9695155B2, “Herbicidal substituted pyrimidinyloxy benzene compounds” (E. I. DU PONT DE NEMOURS AND COMPANY, priority 2013, dated 2017)

What was measured:
[1] = test system: barnyardgrass; test: Test A preemergence; type: in vivo, Echinochloa crus-galli; conditions: for Plant response rating, Barnyardgrass: 0 to 100 scale where 0 is no effect and 100 is complete control
In short: (§1)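 Greenhouse pot test, loam/sand soil. Formulation: non-phytotoxic solvent mix plus surfactant. Pre: directed spray onto soil after sowing. Post: plants at 1–2 leaf, 2–10 cm. Rated visually vs untreated controls at ~10 d, 0 (no effect) to 100 (complete control).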

[2] = test system: kochia; test: Test A preemergence; type: in vivo, Kochia scoparia; conditions: for Plant response rating, Kochia: 0 to 100 scale where 0 is no effect and 100 is complete control
In short: as §1

[3] = test system: ragweed; test: Test A preemergence; type: in vivo, Ambrosia elatior; conditions: for Plant response rating, Ragweed: 125 g ai/ha, 0 to 100 scale where 0 is no effect and 100 is complete control
In short: as §1

[4] = test system: Italian ryegrass; test: Test A preemergence; type: in vivo, Lolium multiflorum; conditions: for Plant response rating, Ryegrass, Italian: 0 to 100 scale where 0 is no effect and 100 is complete control
In short: as §1

[5] = test system: giant foxtail; test: Test A preemergence; type: in vivo, Setaria faberii; conditions: for Plant response rating, Foxtail, Giant: 0 to 100 scale where 0 is no effect and 100 is complete control
In short: as §1

[6] = test system: pigweed; test: Test A preemergence; type: in vivo, Amaranthus retroflexus; conditions: for Plant response rating, Pigweed: 0 to 100 scale where 0 is no effect and 100 is complete control
In short: as §1

[7] = test system: barnyardgrass; test: Test A postemergence; type: in vivo, Echinochloa crus-galli; conditions: for Plant response rating, Barnyardgrass: 31 g ai/ha, 0 to 100 scale, 0 no effect, 100 complete control; for Barnyardgrass plant response rating: 125 g ai/ha, 0 to 100 scale where 0 is no effect and 100 is complete control
In short: as §1

[8] = test system: kochia; test: Test A postemergence; type: in vivo, Kochia scoparia; conditions: for Plant response rating, Kochia: 31 g ai/ha, 0 to 100 scale, 0 no effect, 100 complete control; for Kochia plant response rating: 125 g ai/ha, 0 to 100 scale where 0 is no effect and 100 is complete control
In short: as §1

[9] = test system: ragweed; test: Test A postemergence; type: in vivo, Ambrosia elatior; conditions: for Plant response rating, Ragweed: 31 g ai/ha, 0 to 100 scale, 0 no effect, 100 complete control; for Ragweed plant response rating: 125 g ai/ha, 0 to 100 scale where 0 is no effect and 100 is complete control
In short: as §1

[10] = test system: Italian ryegrass; test: Test A postemergence; type: in vivo, Lolium multiflorum; conditions: for Plant response rating, Ryegrass, Italian: 31 g ai/ha, 0 to 100 scale, 0 no effect, 100 complete control; for Ryegrass, Italian plant response rating: 125 g ai/ha, 0 to 100 scale where 0 is no effect and 100 is complete control
In short: as §1

[11] = test system: giant foxtail; test: Test A postemergence; type: in vivo, Setaria faberii; conditions: for Plant response rating, Foxtail, Giant: 31 g ai/ha, 0 to 100 scale, 0 no effect, 100 complete control; for Foxtail, Giant plant response rating: 125 g ai/ha, 0 to 100 scale where 0 is no effect and 100 is complete control
In short: as §1

[12] = test system: pigweed; test: Test A postemergence; type: in vivo, Amaranthus retroflexus; conditions: for Plant response rating, Pigweed: 31 g ai/ha, 0 to 100 scale, 0 no effect, 100 complete control; for Pigweed plant response rating: 125 g ai/ha, 0 to 100 scale where 0 is no effect and 100 is complete control
In short: as §1

[13] = test system: wheat; test: Test A postemergence; type: in vivo, Triticum aestivum; conditions: for Plant response rating, Wheat: 31 g ai/ha, 0 to 100 scale, 0 no effect, 100 complete control; for Wheat plant response rating: 125 g ai/ha, 0 to 100 scale where 0 is no effect and 100 is complete control
In short: as §1

[14] = test system: corn; test: Test A postemergence; type: in vivo, Zea mays; conditions: for Plant response rating, Corn: 31 g ai/ha, 0 to 100 scale, 0 no effect, 100 complete control; for Corn plant response rating: 125 g ai/ha, 0 to 100 scale where 0 is no effect and 100 is complete control
In short: as §1

[15] = test system: blackgrass; test: Test A postemergence; type: in vivo, Alopecurus myosuroides; conditions: for Plant response rating, Blackgrass: 31 g ai/ha, 0 to 100 scale, 0 no effect, 100 complete control; for Blackgrass plant response rating: 125 g ai/ha, 0 to 100 scale where 0 is no effect and 100 is complete control
In short: as §1

[16] = test system: galium; test: Test A postemergence; type: in vivo, Galium aparine; conditions: for Plant response rating, Galium: 31 g ai/ha, 0 to 100 scale, 0 no effect, 100 complete control; for Galium plant response rating: 125 g ai/ha, 0 to 100 scale where 0 is no effect and 100 is complete control
In short: as §1

[17] = test system: rice; test: Test B flooded paddy test; type: in vivo, Oryza sativa; conditions: Flood, 250 g ai/ha; 0 to 100 scale where 0 is no effect and 100 is complete control
In short: (§2)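 Greenhouse flooded-pot test: compounds dosed into 3 cm standing water over 2-leaf plants, flood held constant. Rated visually after 13–15 days on 0–100 (complete control = 100); a dash marks no test result.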

[18] = test system: sedge, umbrella; test: Test B flooded paddy test; type: in vivo, Cyperus difformis; conditions: Flood, 250 g ai/ha; 0 to 100 scale where 0 is no effect and 100 is complete control
In short: as §2

[19] = test system: Heteranthera limosa; test: Test B flooded paddy test; type: in vivo; conditions: Flood, 250 g ai/ha; 0 to 100 scale where 0 is no effect and 100 is complete control
In short: as §2

[20] = test system: barnyardgrass; test: Test B flooded paddy test; type: in vivo, Echinochloa crus-galli; conditions: Flood, 250 g ai/ha; 0 to 100 scale where 0 is no effect and 100 is complete control
In short: as §2

[21] = 31 g ai/ha, visual, approximately 10 days

| SMILES | Plant response rating, Barnyardgrass ([1]; 125 g ai/ha) | Plant response rating, Kochia ([2]; 125 g ai/ha) | Plant response rating, Ragweed [3] | Plant response rating, Ryegrass, Italian ([4]; 125 g ai/ha) | Plant response rating, Foxtail, Giant ([5]; 125 g ai/ha) | Plant response rating, Pigweed ([6]; 125 g ai/ha) | Plant response rating, Barnyardgrass [7] | Barnyardgrass plant response rating [7] | Plant response rating, Kochia [8] | Kochia plant response rating [8] | Plant response rating, Ragweed [9] | Ragweed plant response rating [9] | Plant response rating, Ryegrass, Italian [10] | Ryegrass, Italian plant response rating [10] | Plant response rating, Foxtail, Giant [11] | Foxtail, Giant plant response rating [11] | Plant response rating, Pigweed [12] | Pigweed plant response rating [12] | Plant response rating, Wheat [13] | Wheat plant response rating [13] | also measured |
| --- | --- | --- | --- | --- | --- | --- | --- | --- | --- | --- | --- | --- | --- | --- | --- | --- | --- | --- | --- | --- | --- |
| FC(F)Oc1cnn(-c2c(Br)cccc2Oc2ncc(Cl)cn2)c1 [Compound 122] | 70 | 100 | 0 | 0 | 100 | 100 | 10 | 40 | 50 | 90 | 10 | 30 | 0 | 20 | 10 | 60 | 70 | 100 | 0 | 10 | Barnyardgrass plant response rating (0 to 100 scale) ([1]; 31 g ai/ha): 10; Kochia plant response rating (0 to 100 scale) ([2]; 31 g ai/ha): 20; Ragweed plant response rating (0 to 100 scale) ([3]; 31 g ai/ha): 0; Ryegrass, Italian plant response rating (0 to 100 scale) ([4]; 31 g ai/ha): 0; Foxtail, Giant plant response rating (0 to 100 scale) ([5]; 31 g ai/ha): 50; Pigweed plant response rating (0 to 100 scale) ([6]; 31 g ai/ha): 80; Plant response rating, Corn [14]: 10; Corn plant response rating [14]: 30; Plant response rating, Blackgrass [15]: 30; Blackgrass plant response rating [15]: 80; Plant response rating, Galium [16]: 20; Galium plant response rating [16]: 40; Plant response rating, Rice [17]: 0; Plant response rating, Sedge, Umbrella [18]: 75; Plant response rating, Ducksalad [19]: 80; Plant response rating, Barnyardgrass [20]: 0 |
| Fc1cnc(Oc2cccc(Br)c2-n2cc(OCC(F)(F)F)cn2)nc1 [Compound 157] | 80 | 90 | 30 | 0 | 100 | 90 | 10 | 80 | 60 | 100 | 20 | 50 | 0 | 20 | 10 | 80 | 90 | 100 | 0 | 0 | Plant response rating, Barnyardgrass [1, 21]: 20; Plant response rating, Kochia [2, 21]: 60; Plant response rating, Ryegrass, Italian [4, 21]: 0; Plant response rating, Foxtail, Giant [5, 21]: 70; Plant response rating, Pigweed [6, 21]: 90; Plant response rating, Corn [14]: 0; Corn plant response rating [14]: 40; Plant response rating, Blackgrass [15]: 30; Blackgrass plant response rating [15]: 50; Plant response rating, Galium [16]: 60; Galium plant response rating [16]: 90; Plant response rating, Rice [17]: 35; Plant response rating, Sedge, Umbrella [18]: 75; Plant response rating, Ducksalad [19]: 80; Plant response rating, Barnyardgrass [20]: 35 |
